The test system of one assay is KPC mouse. The assay can be described thus: Life-extending effect in KPC mouse, spontaneous pancreatic cancer model. The assay is classed as in vivo. The note with it: KPC mice n=8, 100 μg with Alhydrogel every two weeks; all KLH controls (n=7) died before 300 days. As to the method:
To a KPC mouse (aged 8 weeks at the initial immunization) that is a spontaneous pancreatic cancer model, 100 μg of the MTG peptide vaccine was administered together with Alhydrogel (registered trademark) every two weeks, and the survival rate thereof was confirmed (n=8). A KPC mouse to which 100 μg of KLH was administered according to the same schedule was used as a control (n=7) (FIG. 13).

The subject of assay [1] is Lewis lung cancer cells (LLC). The assay can be described thus: Subcutaneous implant model, tumor growth inhibitory effect (LLC). The conditions noted are these: immunized C57BL/6J mice, cells implanted s.c. on day 29, measured 14 days after implantation. The format is in vivo, mouse. As to the method:
(§1) After 2 weeks from the administration of each peptide vaccine and incomplete Freund's adjuvant in Example 1 (on day 29 after the initial peptide vaccine administration), mouse-derived tumor cells were implanted in an immunized mouse, whereby a subcutaneous implant model was prepared. Specifically, mouse lung cancer cells (Lewis lung cancer cells (LLC)) or mouse melanoma cells (B16F1) (all have C57BL/6J as a genetic background) cultured in a RPMI+10% FBS medium were collected by centrifugation, and a cell suspension (1.0×10^8 cells/mL) was prepared with a serum-free medium, and 0.1 mL (1.0×10^7 cells/animal) of the cell suspension was implanted in a right axillary subcutaneous region of a mouse using a 27G injection needle and a syringe, whereby a subcutaneous implant model of tumor cells was prepared.

Assay [2] has as its system mouse melanoma cells (B16F1). As to the kind of experiment: Subcutaneous implant model, tumor growth inhibitory effect (B16F1). The format is in vivo. The conditions noted are these: immunized C57BL/6J mice, cells implanted s.c. on day 29, measured 14 days after implantation. The method, then:
as §1

The test system of assay [3] is pancreatic cancer cell line (K5). The assay can be described thus: Metastasis inhibitory effect in vivo, K5 injected through tail vein, lung metastatic lesion. Also on record: species or system mouse. The conditions noted are these: 100 μg, Alhydrogel, C57BL/6J mice, day 21 after K5 injection; KLH control 2 out of 5 mice with metastasis. As to the method: 20 μg or 100 μg of KLH (control) and 20 μg or 100 μg of the MTG peptide vaccine were prepared with physiological saline so that the total amount was 100 μL, respectively, whereby KLH-mixed solutions were obtained. To each of the KLH-mixed solutions (100 μL), an equal amount of Alhydrogel (registered trademark) was added. The obtained mixture (200 μL) was intradermally (ID) administered to C57BL/6J male mice (n=5) aged 8 weeks, whereby initial immunization was carried out (0 day). Incidentally, in the intradermal administration, 200 μL was administered at a dose of 100 μL each to two sites. After 2 weeks from the administration (14 days), booster immunization was carried out by subcutaneously administering a mixture of each of the KLH-mixed solutions (100 μL) and an equal amount of Alhydrogel (registered trademark) to the mice. […] Further, at that time point, the blood was collected from each mouse, and the antibody titer of an antibody specific to the antigen peptide or the recombinant human VASH2 protein was measured by ELISA. The mice were sacrificed on day 21 after the injection of K5 (49 days), and the lung metastatic lesion was analyzed (FIG. 10). […]

A further assay concerns mTwist1. As to the kind of experiment: Gene expression in excised tumor tissue by real-time PCR, mTwist1. The format is in vivo, mouse. The note with it: tumor excised two weeks after implantation. As to the method:
(§2) The mouse implanted with the tumor cells in Example 2 was sacrificed two weeks after implantation of the tumor cells, and a tumor was excised from the right axillary subcutaneous region. By using RNeasy Plus Kit (Qiagen, Inc.), extraction of the total RNA from the excised tumor and purification thereof were carried out. By using the obtained total RNA as a template, cDNA was synthesized by reverse transcription reaction. The cDNA was analyzed by performing real-time PCR using a mixed solution of the obtained cDNA and SYBR green (TAKARA BIO, Inc.).
(In general: Quantitative PCR measures a nucleic acid by following its amplification.)

Assay [4] deals with mouse lung cancer cells (LLC). As to the kind of experiment: Metastasis inhibitory effect in vivo, LLC injected through tail vein, lung metastatic lesion. The note with it: 20 or 100 μg, day 21 after LLC injection. The method, then: 20 μg or 100 μg of KLH (control) and 20 μg or 100 μg of the peptide represented by SEQ ID NO: 4 conjugated with KLH (MTG peptide vaccine) were prepared with physiological saline so that the total amount was 100 μL, respectively, whereby KLH-mixed solutions were obtained. To each of the KLH-mixed solutions (100 μL), an equal amount of complete Freund's adjuvant or Alhydrogel (registered trademark) (Invitrogen) was added. The obtained mixture (200 μL) was intradermally (ID) administered to C57BL/6J male mice (n=5) aged 8 weeks, whereby initial immunization was carried out (0 day). Incidentally, in the intradermal administration, 200 μL was administered at a dose of 100 μL each to two sites. After 2 weeks from the administration (14 days), booster immunization was carried out by subcutaneously administering a mixture of each of the KLH-mixed solutions (100 μL) and an equal amount of incomplete Freund's adjuvant or Alhydrogel (registered trademark) to the mice. […] Further, at that time point, the blood was collected from each mouse, and the antibody titer of an antibody specific to the VASH2 protein was measured by ELISA. The mice were sacrificed on day 21 after the injection of LLC (49 days), and the lung metastatic lesion was analyzed (FIG. 7). […]

For a further assay, the system named is mCD31. As to the kind of experiment: Gene expression in excised tumor tissue by real-time PCR, mCD31. The assay is classed as in vivo, mouse. The conditions noted are these: 20 μg vaccine; tumor excised two weeks after implantation. As to the method: as §2

One substance from US11712466B2, “Vaccine composition” (TOHOKU UNIVERSITY, priority 2017, dated 2023) can be followed below.

“Also recorded” adds a separate entry of the source. Ends that are not written are not given here.

On to “MTG peptide vaccine: MTG peptide MTGSAADTHR (SEQ ID NO: 4) conjugated with KLH as carrier by a glutaraldehyde method (also: conjugated with KLH by glutaraldehyde)”, for which the “mice survived over 300 days after birth” value in the assay with KPC mouse was “at least 2 mice”. For the same substance, the “tumor size (tumorigenesis), Lewis lung cancer cells” value in assay [1] is listed as “marked inhibition of tumorigenesis; also recorded: marked inhibition of tumor growth”. For the same substance, the “tumor size (tumorigenesis), B16F1 melanoma cells” value in assay [2] is “marked inhibition of tumorigenesis; also recorded: marked inhibition of tumor growth”. For the same substance, the “lung metastasis of the pancreatic cancer cells K5” value in assay [3] is “not confirmed in all four individuals”. For the same substance, the “expression of mTwist1 (epithelial-mesenchymal transition marker) in tumor tissue” value in the assay on mTwist1 is on record as “dose-dependent expression inhibitory effect; also recorded: significantly inhibited depending on the dose”. For the same substance, the “metastasis of cancer cells (lung metastatic lesion), LLC” value in assay [4] (Alhydrogel adjuvant) and in assay [4] (Freund's adjuvant) was “inhibited metastasis of cancer cells” each time. Besides, in the assay on mCD31, the “expression of mCD31 (angiogenesis marker) in tumor tissue” value is “expression of mCD31 was inhibited; also recorded: a tendency to inhibit the expression”.
